Results taken from patent US20240132457A1, “3-(2-(BENZO[D]THIAZOL-2-YL)-2-(PHENYLSUFONAMIDO)ETHYL)BENZIMIDAMIDE DERIVATIVES AND RELATED COMPOUNDS AS TMPRSS2 INHIBITORS FOR THE TREATMENT OF VIRAL INFECTIONS” (INTEGERBIO, INC., priority 2020, published 2024).

How the values were obtained:
Format in all cases: biochemical
[1] = biological target: Tryptase g1 (Homo sapiens, UniProt Q9NRR2); assay: Non-TMPRSS2 protease panel: Tryptase g1; details: 10-dose, 3-fold from 10 μM
Protocol: (§1) Biochemical activity of compound 1 (racemic mixture, batch 1), compound 3 (racemic), compound 11, and compound 2 (enantiomer 1, batch 1) in proteases indicated in Table 21, Table 22, Table 23, and Table 24, respectively, were measured by testing the compounds in a 10-dose IC50 with a 3-fold series dilution starting at 10 μM against the proteases. The protease activities were monitored as a time-course measurement of the increase in fluorescence signal from fluorescently-labeled peptide substrate, and initial linear portion of slope (signal/min) was analyzed. The curve fits were performed when the activities at the highest concentration of compounds were less than 65%.

[2] = biological target: MMP 10 (Homo sapiens, UniProt P09238); assay: Non-TMPRSS2 protease panel: MMP 10; details: 3-fold from 10 μM
Chain of MMP 10 (P09238 99-476): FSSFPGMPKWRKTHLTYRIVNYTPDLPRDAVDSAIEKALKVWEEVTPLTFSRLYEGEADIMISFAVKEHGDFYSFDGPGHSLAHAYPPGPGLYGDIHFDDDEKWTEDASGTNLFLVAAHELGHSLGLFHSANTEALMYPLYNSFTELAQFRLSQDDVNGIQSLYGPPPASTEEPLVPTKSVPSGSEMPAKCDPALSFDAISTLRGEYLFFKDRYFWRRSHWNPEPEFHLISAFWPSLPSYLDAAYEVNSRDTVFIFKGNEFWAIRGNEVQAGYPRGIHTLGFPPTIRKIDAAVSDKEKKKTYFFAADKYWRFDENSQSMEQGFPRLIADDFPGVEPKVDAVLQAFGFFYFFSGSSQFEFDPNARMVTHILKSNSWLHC
Protocol: as §1

[3] = biological target: T1, MMP 1 (Homo sapiens, UniProt P03956); assay: Non-TMPRSS2 protease panel: MMP 1; details: 10-dose, 3-fold from 10 μM
T1 sequence (P03956 100-469): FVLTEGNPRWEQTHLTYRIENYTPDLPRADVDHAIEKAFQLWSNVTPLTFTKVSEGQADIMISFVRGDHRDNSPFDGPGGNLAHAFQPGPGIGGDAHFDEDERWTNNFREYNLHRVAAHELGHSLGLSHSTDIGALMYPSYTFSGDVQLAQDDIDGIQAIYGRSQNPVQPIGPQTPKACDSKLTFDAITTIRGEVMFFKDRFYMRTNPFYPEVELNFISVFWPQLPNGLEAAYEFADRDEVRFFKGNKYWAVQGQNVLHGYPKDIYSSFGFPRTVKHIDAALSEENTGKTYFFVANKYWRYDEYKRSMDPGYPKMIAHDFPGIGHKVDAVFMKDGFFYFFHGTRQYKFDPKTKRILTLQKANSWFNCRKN
Protocol: as §1

[4] = biological target: TACE (Homo sapiens, UniProt P78536); assay: Non-TMPRSS2 protease panel: TACE; details: 10-dose, 3-fold from 10 μM
Chain of TACE (P78536 215-824): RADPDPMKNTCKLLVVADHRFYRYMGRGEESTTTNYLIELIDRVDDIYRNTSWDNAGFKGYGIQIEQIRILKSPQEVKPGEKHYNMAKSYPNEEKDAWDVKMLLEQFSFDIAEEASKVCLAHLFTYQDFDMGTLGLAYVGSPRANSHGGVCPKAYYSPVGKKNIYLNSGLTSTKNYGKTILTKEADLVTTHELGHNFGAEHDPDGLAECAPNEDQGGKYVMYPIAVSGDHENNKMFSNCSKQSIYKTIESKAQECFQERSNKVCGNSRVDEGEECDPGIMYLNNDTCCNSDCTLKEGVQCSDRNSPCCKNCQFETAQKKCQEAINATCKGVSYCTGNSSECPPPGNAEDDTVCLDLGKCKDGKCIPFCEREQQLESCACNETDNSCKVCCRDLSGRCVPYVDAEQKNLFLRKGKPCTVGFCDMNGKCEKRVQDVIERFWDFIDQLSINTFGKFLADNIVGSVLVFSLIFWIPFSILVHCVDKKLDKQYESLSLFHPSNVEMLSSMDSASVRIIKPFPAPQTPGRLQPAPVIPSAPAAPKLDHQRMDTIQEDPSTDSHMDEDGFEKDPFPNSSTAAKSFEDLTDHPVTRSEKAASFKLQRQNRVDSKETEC
Protocol: as §1

[5] = biological target: Tryptase b2 (Homo sapiens, UniProt P20231); assay: Non-TMPRSS2 protease panel: Tryptase b2; details: 10-dose, 3-fold from 10 μM
Chain of Tryptase b2 (P20231 31-275): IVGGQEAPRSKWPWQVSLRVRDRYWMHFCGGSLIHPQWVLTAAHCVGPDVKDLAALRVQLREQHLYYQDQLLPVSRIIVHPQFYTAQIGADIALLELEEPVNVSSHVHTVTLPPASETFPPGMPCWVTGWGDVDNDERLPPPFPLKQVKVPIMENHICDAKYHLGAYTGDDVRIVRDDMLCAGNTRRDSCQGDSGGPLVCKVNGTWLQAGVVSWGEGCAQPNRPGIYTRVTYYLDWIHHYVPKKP
Protocol: as §1

[6] = biological target: T2, FVIIa (Homo sapiens, UniProt P08709); assay: Non-TMPRSS2 protease panel: FVIIa; details: 10-dose, 3-fold from 10 μM
T2 construct: Elastase, FVIIa, Fxa, FXIa
T2 sequence (P08709 213-466 limits assumed): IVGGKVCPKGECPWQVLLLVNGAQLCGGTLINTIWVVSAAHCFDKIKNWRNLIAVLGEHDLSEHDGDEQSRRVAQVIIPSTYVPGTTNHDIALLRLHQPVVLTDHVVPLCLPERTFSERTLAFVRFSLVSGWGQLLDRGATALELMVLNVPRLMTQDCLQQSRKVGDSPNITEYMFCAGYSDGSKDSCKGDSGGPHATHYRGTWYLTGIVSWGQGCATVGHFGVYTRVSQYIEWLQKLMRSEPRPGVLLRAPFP
T2 sequence (P08709 61-212 partner limits assumed): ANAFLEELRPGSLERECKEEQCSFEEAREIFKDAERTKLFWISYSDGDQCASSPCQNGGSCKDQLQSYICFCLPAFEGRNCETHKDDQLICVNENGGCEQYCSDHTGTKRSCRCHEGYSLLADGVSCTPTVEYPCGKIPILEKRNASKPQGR
Protocol: as §1

[7] = biological target: Kallikrein 1 (Homo sapiens, UniProt P06870); assay: Non-TMPRSS2 protease panel: Kallikrein 1; details: 10-dose, 3-fold from 10 μM
Chain of Kallikrein 1 (P06870 25-262): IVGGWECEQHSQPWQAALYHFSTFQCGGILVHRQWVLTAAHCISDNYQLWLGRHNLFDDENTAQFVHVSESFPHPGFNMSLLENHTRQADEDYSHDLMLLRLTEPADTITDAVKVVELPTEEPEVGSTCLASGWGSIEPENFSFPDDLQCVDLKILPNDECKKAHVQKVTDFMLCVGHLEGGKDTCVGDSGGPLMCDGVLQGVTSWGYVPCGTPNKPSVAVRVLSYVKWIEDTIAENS
Protocol: as §1

[8] = biological target: Cathepsin L (Homo sapiens, UniProt P07711); assay: Non-TMPRSS2 protease panel: Cathepsin L; details: 10-dose, 3-fold from 10 μM
Chain of Cathepsin L (P07711 114-333): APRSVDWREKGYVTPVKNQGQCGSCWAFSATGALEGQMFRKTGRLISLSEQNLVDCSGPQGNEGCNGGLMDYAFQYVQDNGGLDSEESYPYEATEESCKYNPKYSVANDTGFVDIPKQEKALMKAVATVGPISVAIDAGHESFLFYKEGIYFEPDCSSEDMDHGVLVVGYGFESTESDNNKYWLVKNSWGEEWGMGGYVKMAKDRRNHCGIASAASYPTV
Protocol: as §1

[9] = biological target: Furin (Homo sapiens, UniProt P09958); assay: Non-TMPRSS2 protease panel: Furin; details: 10-dose, 3-fold from 10 μM
Chain of Furin (P09958 108-794): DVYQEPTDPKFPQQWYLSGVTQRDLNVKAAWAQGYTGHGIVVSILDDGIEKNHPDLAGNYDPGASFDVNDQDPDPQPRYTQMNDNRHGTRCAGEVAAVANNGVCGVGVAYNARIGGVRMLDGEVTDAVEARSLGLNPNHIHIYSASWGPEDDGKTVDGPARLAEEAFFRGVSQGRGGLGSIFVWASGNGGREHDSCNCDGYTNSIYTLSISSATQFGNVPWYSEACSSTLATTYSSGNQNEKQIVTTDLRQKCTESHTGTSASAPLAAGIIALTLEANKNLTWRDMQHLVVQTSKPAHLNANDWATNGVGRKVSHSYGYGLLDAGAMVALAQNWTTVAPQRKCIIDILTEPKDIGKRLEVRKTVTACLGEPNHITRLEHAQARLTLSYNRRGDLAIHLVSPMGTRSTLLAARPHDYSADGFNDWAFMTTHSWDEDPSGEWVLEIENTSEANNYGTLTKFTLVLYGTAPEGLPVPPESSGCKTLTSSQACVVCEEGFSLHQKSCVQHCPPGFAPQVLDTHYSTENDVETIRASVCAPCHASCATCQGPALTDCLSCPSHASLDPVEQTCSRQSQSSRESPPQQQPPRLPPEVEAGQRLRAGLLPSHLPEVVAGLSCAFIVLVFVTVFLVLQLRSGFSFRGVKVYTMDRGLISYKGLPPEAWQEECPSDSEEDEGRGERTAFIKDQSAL
Protocol: as §1

[10] = test system: Trypsin; assay: Non-TMPRSS2 protease panel: Trypsin; details: 10-dose, 3-fold from 10 μM
Protocol: as §1

[11] = biological target: T3, Human TMPRSS2-(AA 106-492) (Homo sapiens, UniProt O15393); assay: TMPRSS2 Assay 2 (Example 42), 384-well primary assay; details: TMPRSS2 20 nM, substrate 40 μM, 150 min at room temperature
T3 construct: Human TMPRSS2-(AA 106-492)-; purchased CusaBio CSB-YP023924HU; host or cells: yeast
T3 sequence (O15393 106-492): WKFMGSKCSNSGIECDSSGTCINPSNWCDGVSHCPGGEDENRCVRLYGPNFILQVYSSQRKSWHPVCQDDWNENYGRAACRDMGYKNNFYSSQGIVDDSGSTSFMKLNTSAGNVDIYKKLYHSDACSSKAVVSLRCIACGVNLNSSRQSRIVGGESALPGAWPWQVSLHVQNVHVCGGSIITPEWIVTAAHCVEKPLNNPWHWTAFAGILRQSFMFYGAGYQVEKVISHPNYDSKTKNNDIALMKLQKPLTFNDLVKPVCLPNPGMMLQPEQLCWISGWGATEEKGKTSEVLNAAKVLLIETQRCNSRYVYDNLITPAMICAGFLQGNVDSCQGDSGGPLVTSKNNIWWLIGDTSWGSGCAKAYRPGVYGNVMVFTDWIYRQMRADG
Protocol: The concentration-response testing of compounds was in primary, readout counter as 11-point compound dilution series in 384-well assay plate format in triplicates (n=3). The compound dilutions was prepared in an intermediate plate (spot volume=150 nL), and then the assay reagents were prepared. After preparing the intermediate plates containing the assay reagents for the transfer into the assay plate using the Selma 384/25 μl pipettor, the assay reagents were transferred into the assay plate.
The resulting plate was centrifuged at g=290 for 30 s, and then the plate was incubated at room temperature for 150 minutes. 10 μl 2.5× of stop reagent (50 mM acetic acid) (Selma) was added, and then the plate was read on Safire e.
The materials, reagents, and equipment used for the assay is described in Table 3, Table 4, Table 5, and Table 6.
For the primary assay, the assay buffer (50 mM Tris-HCL, 150 mM NaCl, 0.01% Tween®20, pH8.0) was prepared using the stocks as described in Table 7.
The enzyme dilution was prepared as described in Table 8.
The final assay concentration was referred to 15 μl assay volume. Using a “greiner-dilution” as intermediate plate, the according wells were filled ([…]). The volume was adjusted using another plate type. Substrate dilution was prepared as described in Table 9.
The final assay concentration was referred to 15 μl assay volume. The DMSO concentration of the substrate working dilution was 1.2%. Using a “greiner-dilution” as intermediate plate, the according wells were filled (23 μl). Using another plate type, the volume was adjusted.
The compounds were dissolved in DM50. 150 nl of the compound were transferred into the assay plate prior to addition of the assay components (final assay volume of 15 μl).
The final concentration of the tool compound (low control) in the assay (assay volume l) was 0.8 μM. For the High control 5 μl/well […] was filled in column 6. The readout settings are described in Table 14. The readout was performed utilizing Safire^2 Microplate Reader. […]

Chain of Tryptase g1 (Q9NRR2 20-321): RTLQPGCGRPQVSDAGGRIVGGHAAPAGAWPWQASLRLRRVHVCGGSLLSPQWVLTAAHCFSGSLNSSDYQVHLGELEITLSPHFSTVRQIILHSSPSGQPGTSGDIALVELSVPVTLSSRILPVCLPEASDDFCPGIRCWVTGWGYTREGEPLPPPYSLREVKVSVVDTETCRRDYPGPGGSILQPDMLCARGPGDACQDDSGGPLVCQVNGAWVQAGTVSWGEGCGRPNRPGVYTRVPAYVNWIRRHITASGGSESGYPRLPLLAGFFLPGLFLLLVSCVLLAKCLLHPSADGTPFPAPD

| SMILES | IC50 [1] | IC50 [2] | IC50 [3] | IC50 [4] | IC50 [5] | IC50 ([6]; FVIIa) | IC50 [7] | IC50 [8] | IC50 [9] | IC50 [10] | IC50 [11] | IC50 ([6]; Factor VIIa) |
| --- | --- | --- | --- | --- | --- | --- | --- | --- | --- | --- | --- | --- |
| N=C(N)c1cccc(CC(NS(=O)(=O)c2cccc(-c3ccc(Cl)cc3Cl)c2)c2nc3ccccc3s2)c1 (racemic) [3 (racemic), 3-[2-(1,3-Benzothiazol-2-yl)-2-{2′,4′-dichloro-[1,1′-biphenyl]-3-sulfonamido}ethyl]benzene-1-carboximidamide] | < 10 µM | > 10 µM | > 10 µM | > 10 µM | < 10 µM | > 10 µM | > 10 µM | > 10 µM | > 10 µM | < 10 µM | > 30 µM |  |
| COc1ccc2nc(C(Cc3cccc(C(=N)N)c3)NS(=O)(=O)c3ccccc3)sc2c1 (stereo not shown) [Compound 11, 3-[2-Benzenesulfonamido-2-(6-methoxy-1,3-benzothiazol-2-yl)ethyl]benzene-1-carboximidamide] | > 10 µM | > 10 µM | > 10 µM | > 10 µM | > 10 µM |  | < 10 µM | > 10 µM | > 10 µM | > 10 µM |  | > 10 µM |
| N=C(N)c1cccc(CC(NS(=O)(=O)c2ccccc2)c2nc3ccccc3s2)c1 (racemic) [1 (racemic mixture, batch 1), 3-[2-Benzenesulfonamido-2-(1,3-benzothiazol-2-yl)ethyl]benzene-1-carboximidamide] | > 10 µM | > 10 µM | > 10 µM | > 10 µM | > 10 µM | > 10 µM | < 10 µM | > 10 µM | > 10 µM | > 10 µM | < 30 µM |  |
| N=C(N)c1cccc(C[C@H](NS(=O)(=O)c2ccccc2)c2nnco2)c1 (single isomer, unassigned) [Compound 2 (enantiomer 1, batch 1), 3-[2-Benzenesulfonamido-2-(1,3,4-oxadiazol-2-yl)ethyl]benzene-1-carboximidamide] | > 10 µM | > 10 µM | > 10 µM | > 10 µM | > 10 µM | > 10 µM | > 10 µM | > 10 µM | > 10 µM | > 10 µM | > 30 µM |  |
